Paper PMC9356076, “An Integrated Pharmacological Counselling Approach to Guide Decision-Making in the Treatment with CDK4/6 Inhibitors for Metastatic Breast Cancer” (Frontiers in Pharmacology, 2022)

What was measured:
P-glycoprotein (P-gp) = details: background statement, no reference given; cited from earlier work
[1] = tested on: breast cancer resistance protein (BCRP); details: background statement, no reference given; cited from earlier work
[2] = cited from earlier work
[3] = tested on: HR-positive/HER2-negative MBC patients; experiment: Patient's clinical outcome of CDKi treatment for metastatic breast cancer; format: in vivo, human
Source text: (§1) Our counselling service was already available for other KI used in oncology as imatinib, sorafenib, regorafenib, sunitinib, lenvatinib, and three PARP inhibitors: olaparib, niraparib, and rucaparib. Written informed consent was obtained for pharmacogenetic and TDM analyses and the publication of the here presented reports. Any potentially identifying information was omitted. Data concerning age, disease, stage, and molecular profiling, treatment regimen and setting, drug dose, adverse drug reactions, and coadministered treatments were retrieved from the electronic medical record upon patients’ reporting by the prescribing medical oncologist. Toxicities were retrospectively collected through clinical records revision and graded according to Common Terminology Criteria for Adverse Events (CTCAE) Version 5.0.

clinical = details: human
Procedure: (§2) Plasma was obtained by centrifugation at 2,450 g for 10 min at 4°C of whole blood EDTA tubes and stored at −80°C until analysis. Patients’ samples were analyzed with a newly developed LC-MS/MS method as previously reported ([Posocco et al., 2020]). Drug concentration was usually evaluated at specific time points, which allowed the evaluation of Cmin or Cmax at steady state. […] Last administration (self-reported) and sampling times were also recorded. According to the literature ([Verheijen et al., 2017]), the average exposure of the approved efficacious dose was used as a proxy of target Cmin and will be referred to as “target Cmin” in this article.
(§3) Descriptive statistics were used to present and analyze the TDM data. The mean population Cmin value reported in the literature for patients treated with the standard dose was used to evaluate the TDM target, and the ±20% intervals were calculated. This interval was based on acceptable variability of analytical data according to incurred sample reanalysis criteria ([FDA, 2018]; [EMA, 2022]). Patients who fell outside this range were considered to be potentially under or overexposed to the drugs.

UGT = details: background statement, no reference given; cited from earlier work
[4] = tested on: HR-positive/HER2-negative MBC patients; experiment: Adverse drug reactions in treated patients, graded by CTCAE Version 5.0; format: in vivo, human; details: palbociclib 100 mg/day
Source text: as §1

[5] = Therapeutic drug monitoring: steady-state plasma concentration in patients by LC-MS/MS
Procedure: as §2, §3

CCN1CCN(Cc2ccc(Nc3ncc(F)c(-c4cc(F)c5nc(C)n(C(C)C)c5c4)n3)nc2)CC1 [abemaciclib]
substrate of the efflux transporter P-gp (P-glycoprotein (P-gp)): substrates
substrate of / transport by BCRP [1]: substrates
proposed target Cmin ([2]; abemaciclib, MONARCH 3 patients, 132 mg/twice day, ref US Food and Drug Administration, 2017b): 181 ng/mL

CN(C)C(=O)c1cc2cnc(Nc3ccc(N4CCNCC4)cn3)nc2n1C1CCCC1 [ribociclib]
Patient's clinical outcome ([3]; Case III, ribociclib 600 mg/day reduced to 400 mg and then 200 mg, I line): disease progression
Patient's clinical outcome ([3]; Case III, ribociclib 600 mg/day reduced to 400 mg and then 200 mg, I line, listed as Ribociclib): The dose of ribociclib was reduced after more than 1 year of intermittent treatment due to toxicity. Ribociclib treatment ultimately failed
substrate of the efflux transporter P-gp (P-glycoprotein (P-gp)): substrate
concentration at 24 h (clinical; in vivo): 586 to 878 ng/mL
substrate of / transport by BCRP [1]: no noticeable transport
glucuronidation reaction by UGT (UGT): undergo a glucuronidation reaction
reported mean Cmin (target population Cmin) ([2]; ribociclib standard dose 600 mg/day, ref FDA, 2021b): 732 ng/mL
mean steady-state population Cmax ([2]; ribociclib): 2,237 ng/ml

N#Cc1ccc(C(c2ccc(C#N)cc2)n2cncn2)cc1 [letrozole]
proposed Cmin target value ([2]; letrozole, dedicated exposure-efficacy studies, ref FDA, 2021a): 85.6 ng/mL

CC(=O)c1c(C)c2cnc(Nc3ccc(N4CCNCC4)cn3)nc2n(C2CCCC2)c1=O [palbociclib]
Patient's clinical outcome ([3]; Case I, palbociclib 75 mg/day + fulvestrant, II line): systemic PD
Patient's clinical outcome ([3]; Case I, palbociclib 75 mg/day + fulvestrant, II line, listed as Palbociclib): Palbociclib treatment failure due to disease progression
neutropenia grade after dose reduction ([4]; Case II): grade 4
neutropenia grade after dose reduction ([4]; Case V): grade 3
Cmin (minimum plasma concentration) ([5]; Case I, palbociclib 75 mg/day + fulvestrant, steady state, 24 h after last intake): 27.3 ng/ml (palbociclib 75 mg/day)
Cmin ([5]; Case II, after dose reduction to palbociclib 100 mg/day): 62.3 ng/mL
concentration at 24 h ([5]; human, plasma, oral, 100 mg/day): 62.3 ng/mL
concentration at 24 h (clinical; plasma, oral): 49 to 73 ng/mL
